# Measurements reported in patent US20130209985A1, “SAMPLE COLLECTION DEVICES WITH BLOOD STABILIZING AGENTS” (priority 2012, published 2013).
# What was measured:
# [1] = system: CD63 surface expression on platelets; test: Whole blood flow cytometry of platelet CD63 surface expression (dense granule/lysosome release); format: cell-based; conditions: Example 2; for CD63 surface expression: EDTA without iloprost
# Description: (§1) Platelet activation can result in a robust and rapid release of α-granules, dense granules, and lysosomes, the contents of which serve to promote a variety of autocrine and paracrine signal transduction events. CD62P (P-selectin) is an adhesion molecule that is transiently expressed on the platelet plasma membrane following α-granule release and can mediate platelet-leukocyte aggregates via ligation with leukocyte expressed P-selectin glycoprotein ligand 1 (PSGL-1/CD162). Dense granule and lysosome release can be measured, although not distinguished, with CD63 surface expression.
# The effect of EDTA on platelet activation, as judged by CD62P and CD63 surface expression, was evaluated in the presence or absence of the platelet stabilization agent (iloprost). Whole blood was collected into tubes containing EDTA or EDTA with iloprost at 0.5, 5 and 50 μM final concentration. Antibody cocktails containing previously determined amounts of αCD61 PerCP, αCD62P PE, αCD63 Alexa Fluor® 647, and/or appropriate isotype controls were added to a conical bottom micro titer plate. A modified HEPES-Tyrode's buffer was used to equilibrate the final volume to 100 μL for each staining reaction. Platelet surface staining was performed by adding 5 μL of whole blood to the appropriate staining mix and incubating at RT under dark conditions for 15 minutes. Afterwards, the entire reaction was transferred to 5 mL round bottom polystyrene snap cap tubes containing 1 mL of HEPES-Tyrode's buffer for a final dilution of each sample. Samples were briefly vortexed and data was acquired using a BD FACScalibur instrument. FSC and SSC settings were established on the log scale in order to discern platelet size and morphology from RBC and WBC populations. In order to further discriminate platelet-specific events, a PerCP alone control was used to establish a CD61^+ gate. […] The PerCP alone control was also used to set fluorescence detector voltages for CD62P^−/CD63^− populations. […]
# [2] = system: CD62P (P-selectin) surface expression on platelets; test: Whole blood flow cytometry of platelet CD62P surface expression (α-granule release); format: cell-based; conditions: for median PE fluorescence (CD62P) / frequency of CD62P expression (CD62P+ platelets): Example 1; for CD62P expression: Example 2, iloprost 0.5 μM where added, mean of 3 subjects; for MFI Over Time (CD62P, all platelet events): Example 3, 10 subjects
# Description: as §1
# The effect of EDTA on platelet activation, as judged by CD62P and CD63 surface expression, was evaluated in the presence or absence of the platelet stabilization agent (iloprost). Whole blood was collected into tubes containing EDTA or EDTA with iloprost at 0.5, 5 and 50 μM final concentration. Antibody cocktails containing previously determined amounts of αCD61 PerCP, αCD62P PE, αCD63 Alexa Fluor® 647, and/or appropriate isotype controls were added to a conical bottom micro titer plate. A modified HEPES-Tyrode's buffer was used to equilibrate the final volume to 100 μL for each staining reaction. Platelet surface staining was performed by adding 5 μL of whole blood to the appropriate staining mix and incubating at RT under dark conditions for 15 minutes. Afterwards, the entire reaction was transferred to 5 mL round bottom polystyrene snap cap tubes containing 1 mL of HEPES-Tyrode's buffer for a final dilution of each sample. Samples were briefly vortexed and data was acquired using a BD FACScalibur instrument. FSC and SSC settings were established on the log scale in order to discern platelet size and morphology from RBC and WBC populations. In order to further discriminate platelet-specific events, a PerCP alone control was used to establish a CD61^+ gate. Since CD63 is not a platelet specific marker it was necessary to further gate on the single platelet morphology population to avoid a CD63 signature from the platelet-bound leukocytes. The PerCP alone control was also used to set fluorescence detector voltages for CD62P^−/CD63^− populations. Once voltage and compensation settings were finalized, 10,000 CD61^+/single platelet events were acquired for each test sample.
# The effect of iloprost on platelet activation was studied in the presence of strong platelet-activating agents, ADP and thrombin-receptor activating peptide (TRAP). Platelet stimulations were performed by adding 300 μL blood to micro-centrifuge tubes containing 10 μL of saline (0.85%), ADP, or TRAP-6 and incubating for approximately 2 min at RT. Final concentrations of ADP and TRAP-6 were 6.5 μM and 32 μM, respectively. Afterwards, whole blood flow cytometry was performed as described above. Blood collection and flow cytometry was performed as described in example 1.
# The effect of iloprost on platelet degranulation was measured in EDTA and EDTA/protease inhibitor background. Whole blood was collected into tubes containing EDTA, EDTA with iloprost, a protease inhibitor cocktail (“PIC”, which included one protease inhibitor from each class of inhibitor described in Table II in U.S. Pat. No. 7,309,468), and the cocktail with iloprost. Whole blood flow cytometry to measure CD62P expression was performed as described in example 1.
# [3] = molecular target: acetylcholinesterase (AChE) (Homo sapiens, UniProt P22303); conditions: read-out: Ki for AChE; cited from earlier work
# [4] = system: platelets (platelet clumping); test: Complete blood count and hematology parameters, Sysmex XE-2100; format: cell-based; conditions: compared to EDTA alone
# [5] = system: platelet-leukocyte aggregates; test: Leukocyte-platelet aggregates by flow cytometry (αCD61/αCD45); format: cell-based; conditions: t=0, 4, 24 and 144 hr of sample dwell; versus EDTA alone; 6 subjects
# Description: Blood was collected as described in example 1. Antibody cocktails containing previously determined amounts of αCD61 (platelet marker), αCD45 (leukocyte marker) and/or appropriate isotype controls were used to detect the platelet-leukocyte aggregates at t=0, 4, 24 and 144 hr of sample dwell with the use of flow cytometry as described in example 1. […] Data representative of 6 subjects.
# TGFβ1 = test: Plasma biomarker release, ELISA; format: cell-based; conditions: 0, 2, 8 and 24 hr sample dwell; relative to EDTA alone
# Experimental: (§2) Blood was collected as described in example 1. Plasma was prepared at indicated timepoints (0, 2, 8 and 24 hr sample dwell) by centrifuging the tubes at 3000 rcf for 10 min. and was used to measure levels of PDGFa/a, TGFβ1, VEGF, IL-8 (CXCL8), and RANTES (CCL5) using commercially available ELISA kits, per manufacturer's instructions.
# PDGFa/a = test: Plasma biomarker release, ELISA; format: cell-based; conditions: 0, 2, 8 and 24 hr sample dwell; relative to EDTA alone
# Experimental: as §2
# VEGF = test: Plasma biomarker release, ELISA; format: cell-based; conditions: 0, 2, 8 and 24 hr sample dwell; relative to EDTA alone
# Experimental: as §2
# RANTES (CCL5) = test: Plasma biomarker release, ELISA; format: cell-based; conditions: 0, 2, 8 and 24 hr sample dwell; relative to EDTA alone
# Experimental: as §2
# IL-8 (CXCL8) = test: Plasma biomarker release, ELISA; format: cell-based; conditions: EDTA with iloprost versus EDTA alone
# Experimental: as §2
# [6] = whole blood in EDTA, iloprost 0.5 μM
# [7] = whole blood in EDTA, iloprost 5 μM
# [8] = whole blood in EDTA, iloprost 50 μM
# acetylcholinesterase (AChE), sequence (P22303 32-614, species assumed): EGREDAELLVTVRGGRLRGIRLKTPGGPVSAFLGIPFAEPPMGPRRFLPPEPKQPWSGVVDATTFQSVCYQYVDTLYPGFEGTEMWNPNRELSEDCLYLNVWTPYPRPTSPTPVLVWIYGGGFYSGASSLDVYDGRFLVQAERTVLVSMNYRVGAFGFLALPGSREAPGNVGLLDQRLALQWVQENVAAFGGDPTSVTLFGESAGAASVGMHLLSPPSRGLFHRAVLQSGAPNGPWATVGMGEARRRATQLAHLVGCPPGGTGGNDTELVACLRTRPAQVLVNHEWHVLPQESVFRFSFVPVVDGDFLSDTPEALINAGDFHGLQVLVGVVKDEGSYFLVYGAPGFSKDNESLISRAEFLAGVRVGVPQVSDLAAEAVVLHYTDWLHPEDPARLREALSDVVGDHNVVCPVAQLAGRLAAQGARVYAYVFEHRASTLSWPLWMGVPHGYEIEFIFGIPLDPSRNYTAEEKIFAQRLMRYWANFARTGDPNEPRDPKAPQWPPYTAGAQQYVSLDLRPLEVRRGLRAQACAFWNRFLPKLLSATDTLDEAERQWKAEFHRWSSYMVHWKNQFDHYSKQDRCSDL
smiles,measurement,setting,value
"O=C(O)CN(CCN(CC(=O)O)CC(=O)O)CC(=O)O [EDTA, Ethylenediamine tetraacetic acid]",CD63 surface expression,[1]; ADP 6.5 μM,7.67%
same,CD63 expression,"[1]; TRAP-6 32 μM stimulated, iloprost 0.5, 5, 50 μM where added",69.3%
same,CD63 surface expression,[1]; unstimulated,2.13%
same,median PE fluorescence (CD62P),[2]; whole blood in EDTA alone,44.7
same,frequency of CD62P expression (CD62P+ platelets),"[2]; whole blood in EDTA alone, no iloprost",44.7%
same,CD62P expression,[2]; ADP 6.5 μM activated,85.1%
same,CD62P expression,[2]; TRAP-6 32 μM activated,99.4%
same,CD62P expression,[2]; resting samples (saline),44.6%
same,"MFI Over Time (CD62P, all platelet events)",[2]; 0 hrs sample dwell,20.21
same,"MFI Over Time (CD62P, all platelet events)",[2]; 2 hrs sample dwell,42.66
same,"MFI Over Time (CD62P, all platelet events)",[2]; 8 hrs sample dwell,33.14
same,"MFI Over Time (CD62P, all platelet events)",[2]; 24 hrs sample dwell,63.02
same,"MFI (CD62P, all platelet events)","[2]; Example 10, 5 subjects",171.56
"CCC1=CC2Cc3nc4cc(Cl)ccc4c(N)c3C(C1)C2 [Huprine X, (1S)-7-chloro-15-ethyl-10-azatetracyclo[11.3.1.0̂{2,11}.0̂{4,9}]heptadeca-2(11),3,5,7,9,14-hexane-3-amine]",Ki,[3],0.026 nM
CC#CCC(C)[C@H](O)/C=C/[C@@H]1[C@H]2C/C(=C/CCCC(=O)O)C[C@H]2C[C@H]1O (some centres unmarked) [iloprost],mean platelet volume (MPV),"[4]; p<0.001, Paired Test",lower
same,decrease in platelet clumps,[4]; study of 300 normal healthy subjects,40%
same,percentage of leukocyte-bound platelets,[5],reduced
same,expression of TGFβ1 in plasma,TGFβ1,reduced
same,expression of PDGFa/a in plasma,PDGFa/a,reduced
same,expression of VEGF in plasma,VEGF,reduced
same,expression of RANTES in plasma,RANTES (CCL5),reduced
same,expression of IL-8 in plasma,IL-8 (CXCL8),similar
same,frequency of CD62P expression (CD62P+ platelets),[2]; [6],15.0%
same,median PE fluorescence (CD62P),[2]; [6],7.31
same,frequency of CD62P expression (CD62P+ platelets),[2]; [7],14.1%
same,median PE fluorescence (CD62P),[2]; [7],7.12
same,frequency of CD62P expression (CD62P+ platelets),[2]; [8],13.9%
same,median PE fluorescence (CD62P),[2]; [8],7.06
same,CD62P expression,[2]; ADP 6.5 μM activated,17.3%
same,CD62P expression,[2]; TRAP-6 32 μM activated,33.4%
same,CD62P expression,[2]; resting samples (saline),15.0%
same,percentage of CD62+ events,"[2]; Example 10, both EDTA and PIC backgrounds, 5 subjects",reduced
